Key:
Format in all cases: cell-based, Plasmodium falciparum
P. falciparum W2 = experiment: Malaria SYBR Green Fluorescence Assay, W2 strain; conditions: for W2: SYBR Green Assay
P. falciparum D6 = experiment: Malaria SYBR Green Fluorescence Assay, D6 strain; conditions: for D6: SYBR Green Assay
P. falciparum C235 = experiment: Malaria SYBR Green Fluorescence Assay, C235 strain; conditions: for C235: SYBR Green Assay

Row | Molecule | W2 (P. falciparum W2) | D6 (P. falciparum D6) | C235 (P. falciparum C235) | W2 (SYBR Green Assay IC50) (P. falciparum W2) | D6 (SYBR Green Assay IC50) (P. falciparum D6) | C235 (SYBR Green Assay IC50) (P. falciparum C235)
1 | CCN1CCCC(Nc2nc(Cc3ccc(OC)cc3)nc(C(Cl)(Cl)Cl)n2)C1 (stereo not drawn) [Cmpd 86] | 600 ng/mL | 623 ng/mL | 991 ng/mL | – | – | –
2 | CSc1ccc(-c2nc(N3CCCN(CCO)CC3)nc(C(Cl)(Cl)Cl)n2)cc1 [Cmpd 457] | – | – | – | 0.08 µg/mL | 0.328 µg/mL | 0.168 µg/mL
3 | COc1ccc(-c2nc(NCC3CCN(C)CC3)nc(C(Cl)(Cl)Cl)n2)c2ccccc12 [Cmpd 517] | – | – | – | 0.007 µg/mL | 0.023 µg/mL | 0.012 µg/mL
4 | Cc1ccc(-c2ccccc2-c2nc(NCc3ccncc3)nc(C(Cl)(Cl)Cl)n2)cc1 [Cmpd 299] | 148 ng/mL | 195 ng/mL | 311 ng/mL | – | – | –
5 | NC1CCN(c2nc(-c3ccc(Cl)cc3)nc(C(Cl)(Cl)Cl)n2)CC1 [Compound 630, NC1CCN(CC1)C1═NC(═NC(═N1)C(Cl)(Cl)Cl)C1═CC═C(Cl)C═C1] | – | – | – | 0.01 µg/mL | 0.012 µg/mL | 0.013 µg/mL
6 | CSc1ccc(-c2nc(NCC3CCN(C)CC3)nc(C(Cl)(Cl)Cl)n2)cc1 [Cmpd 509] | – | – | – | 0.098 µg/mL | 0.294 µg/mL | 0.167 µg/mL
7 | CCN(CC)CCNc1nc(-c2ccc(OC)cc2)nc(C(Cl)(Cl)Cl)n1 [Cmpd 268] | 259 ng/mL | 309 ng/mL | 282 ng/mL | – | – | –
8 | CC(C)CN1CCC(CC1)NC1═NC(═NC(═N1)C1═CC═CC═C1)C(Cl)(Cl)Cl [Compound 704] | 223 ng/mL | 867 ng/mL | 525 ng/mL | – | – | –
9 | CC(=O)Nc1cccc(Nc2nc(-c3ccc(S(C)(=O)=O)cc3)nc(C(Cl)(Cl)Cl)n2)c1 [Compound 691, CC(═O)Nc1cccc(Nc2nc(nc(n2)C(Cl)(Cl)Cl)c3ccc(cc3)S(═O)(═O)C)c1] | 256 ng/mL | 341 ng/mL | 705 ng/mL | – | – | –
10 | CN(C)CCCNc1nc(-c2ccc(S(C)(=O)=O)cc2)nc(C(Cl)(Cl)Cl)n1 [Cmpd 442] | – | – | – | 0.001 µg/mL | 0.002 µg/mL | 0.002 µg/mL
11 | CSc1ccc(cc1)c2nc(nc(n2)C(Cl)(Cl)Cl)N3CC4CC3CN4C(═O)OC(C)(C)C [Compound 710] | 281 ng/mL | 145 ng/mL | 571 ng/mL | – | – | –
12 | CS(=O)(=O)c1ccc(-c2nc(NCc3ccccn3)nc(C(Cl)(Cl)Cl)n2)cc1 [Cmpd 177] | 186 ng/mL | 355 ng/mL | 565 ng/mL | – | – | –
13 | NC1CCN(CC1)C1═NC(═NC(═N1)C1═CC2═C(C═CC═C2)C═C1)C(Cl)(Cl)Cl [Compound 628] | – | – | – | 0.017 µg/mL | 0.042 µg/mL | 0.02 µg/mL
14 | OCCN1CCN(c2nc(-c3ccc(Cl)c(Cl)c3)nc(C(Cl)(Cl)Cl)n2)CC1 [Cmpd 304] | 41 ng/mL | 80 ng/mL | 201 ng/mL | – | – | –
15 | Clc1cccc(-c2nc(NCCc3cnccn3)nc(C(Cl)(Cl)Cl)n2)c1 [Cmpd 472] | – | – | – | 0.051 µg/mL | 0.449 µg/mL | 0.244 µg/mL
16 | COc1ccccc1-c1nc(NCCc2ccncc2)nc(C(Cl)(Cl)Cl)n1 [Cmpd 146] | 246 ng/mL | 539 ng/mL | 804 ng/mL | – | – | –
17 | OCCN1CCCN(c2nc(-c3ccccc3)nc(C(Cl)(Cl)Cl)n2)CC1 [Cmpd 458] | – | – | – | 0.044 µg/mL | 0.172 µg/mL | 0.116 µg/mL
18 | CSC1═CC═C(C═C1)C1═NC(═NC(NC2CCN(CC(C)C)CC2)═N1)C(Cl)(Cl)Cl [Compound 695] | 418 ng/mL | 582 ng/mL | 675 ng/mL | – | – | –
19 | CS(=O)(=O)c1ccc(-c2nc(N3CCCN(CCO)CC3)nc(C(Cl)(Cl)Cl)n2)cc1 [Cmpd 132] | 103 ng/mL | 64 ng/mL | 200 ng/mL | – | – | –
